Assay results: US20260317344A1, “EGFR INHIBITORS FOR TREATING DISEASE” (BLOSSOMHILL THERAPEUTICS, INC., priority 2023, published 2026)

Key:
EGFR (L858R/T790M/C797S) = EGFR (L858R/T790M/C797S) (Homo sapiens, UniProt P00533, C797S/L858R/T790M); assay: HotSpot radiometric kinase assay, inhibition of EGFR L858R/T790M/C797S mutant; format: biochemical; details: 33P ATP, room temperature, 120 m
Method in brief: (§1)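 Kinase/substrate pairs in 20 mM HEPES pH 7.5, 10 mM MgCl2, 1 mM EGTA, 0.02% Brij35, 0.02 mg/ml BSA, 0.1 mM Na3VO4, 2 mM DTT, 1% DMSO, preincubated ~20 min with compound. Reaction started with ATP/33P-ATP ([…]), run 120 min at room temperature; phosphorylation read by P81 filter binding, IC50 from curve fits.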

EGFR (D746-750) = EGFR (D746-750) (Homo sapiens, UniProt P00533, DEL746-750); assay: HotSpot radiometric kinase assay, inhibition of EGFR 746-750 mutant; format: biochemical; details: 33P ATP, room temperature, 120 m
Method in brief: as §1

EGFR (D746-750/C797S) = EGFR (D746-750/C797S) (Homo sapiens, UniProt P00533, C797S/DEL746-750); assay: HotSpot radiometric kinase assay, inhibition of EGFR 746-750/C797S mutant; format: biochemical; details: 33P ATP, room temperature, 120 m
Method in brief: as §1

EGFR (D770_N771insNPG) = EGFR (D770_N771insNPG) (Homo sapiens, UniProt P00533, INS770NPG); assay: HotSpot radiometric kinase assay, inhibition of EGFR (D770_N771insNPG) mutant; format: biochemical; details: 33P ATP, room temperature, 120 m
Method in brief: as §1

[1] = target: T1, pEGFR, PC-9 cells (d746-750 EGFR) (Homo sapiens, UniProt P00533, DEL746-750); assay: Cellular EGFR phosphorylation assay (LANCE Ultra TR-FRET) in PC-9 cells; format: cell-based; details: 4 hours at 37° C., read-out: PC-9 pEGFR IC50
T1 construct: pEGFR (Tyr1068) TR-FRET
Method in brief: (§2)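 Phospho-EGFR (Tyr1068) measured by TR-FRET in lysates after 4 h compound exposure at 37° C (9 doses, 3-fold steps). A431 cells, seeded at 30 thousand per well, received 40 ng/mL EGF for the last 10 min; PC-9 and NCI-H1975 seeded at 50 thousand per well, unstimulated. IC50 values reported.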

[2] = target: T2, pEGFR, NCI-H1975 cells (L858R/T790M EGFR) (Homo sapiens, UniProt P00533, L858R/T790M); assay: Cellular EGFR phosphorylation assay (LANCE Ultra TR-FRET) in NCI-H1975 cells; format: cell-based; details: 4 hours at 37° C., read-out: H1975 pEGFR IC50
T2 construct: pEGFR (Tyr1068) TR-FRET
Method in brief: as §2

[3] = target: T3, pEGFR, A431 cells (wildtype EGFR) (Homo sapiens, UniProt P00533); assay: Cellular EGFR phosphorylation assay (LANCE Ultra TR-FRET) in A431 cells; format: cell-based; details: 4 hours at 37° C., 40 ng/mL EGF for the final 10 minutes, read-out: A431 pEGFR IC50
T3 construct: pEGFR (Tyr1068) TR-FRET
Method in brief: as §2

PC-9 cells = assay: 5-Day CellTiter Glo (CTG) cell proliferation assay, PC-9; format: cell-based; details: Homo sapiens; PC-9 cells (d746-750 EGFR), 5-day CTG proliferation, 120 hours; read-out: PC-9 IC50
Method in brief: (§3)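 Luminescent ATP signal (CellTiter-Glo 2.0) after 120 hours of compound exposure gave IC50 values. PC-9 and HCC827 harbour EGFR d746-750; NCI-H1975 harbours L858R/T790M.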

NCI-H1975 cells = assay: 5-Day CellTiter Glo (CTG) cell proliferation assay, NCI-H1975; format: cell-based; details: Homo sapiens; NCI-H1975 cells (L858R/T790M EGFR), 5-day CTG proliferation, 120 hours; read-out: H1975 IC50
Method in brief: as §3

HCC827 cells = assay: 5-Day CellTiter Glo (CTG) cell proliferation assay, HCC827; format: cell-based; details: Homo sapiens; HCC827 cells (d746-750 EGFR), 5-day CTG proliferation, 120 hours; read-out: HCC827 IC50
Method in brief: as §3

[4] = system: BaF3 cells with engineered EGFR L858R/T790M/C797S; assay: 3-Day CellTiter Glo (CTG) cell proliferation assay, BaF3 EGFR L858R/T790M/C797S; format: cell-based; details: Mus musculus, 3-day CTG proliferation, 72 hours
Method in brief: (§4)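 Growth inhibition in transgene-bearing BaF3 lines was scored after three days of compound treatment by CellTiter-Glo 2.0 ATP luminescence, yielding IC50 values.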

[5] = system: BaF3 cells with engineered EGFR L858R/C797S; assay: 3-Day CellTiter Glo (CTG) cell proliferation assay, BaF3 EGFR L858R/C797S; format: cell-based; details: Mus musculus, 3-day CTG proliferation, 72 hours
Method in brief: as §4

[6] = system: BaF3 cells with engineered EGFR d746-750/T790M; assay: 3-Day CellTiter Glo (CTG) cell proliferation assay, BaF3 EGFR d746-750/T790M; format: cell-based; details: Mus musculus; BaF3 EGFR d746-750/T790M cells, 3-day CTG proliferation, 72 hours
Method in brief: as §4

T3 sequence (P00533 25-1210): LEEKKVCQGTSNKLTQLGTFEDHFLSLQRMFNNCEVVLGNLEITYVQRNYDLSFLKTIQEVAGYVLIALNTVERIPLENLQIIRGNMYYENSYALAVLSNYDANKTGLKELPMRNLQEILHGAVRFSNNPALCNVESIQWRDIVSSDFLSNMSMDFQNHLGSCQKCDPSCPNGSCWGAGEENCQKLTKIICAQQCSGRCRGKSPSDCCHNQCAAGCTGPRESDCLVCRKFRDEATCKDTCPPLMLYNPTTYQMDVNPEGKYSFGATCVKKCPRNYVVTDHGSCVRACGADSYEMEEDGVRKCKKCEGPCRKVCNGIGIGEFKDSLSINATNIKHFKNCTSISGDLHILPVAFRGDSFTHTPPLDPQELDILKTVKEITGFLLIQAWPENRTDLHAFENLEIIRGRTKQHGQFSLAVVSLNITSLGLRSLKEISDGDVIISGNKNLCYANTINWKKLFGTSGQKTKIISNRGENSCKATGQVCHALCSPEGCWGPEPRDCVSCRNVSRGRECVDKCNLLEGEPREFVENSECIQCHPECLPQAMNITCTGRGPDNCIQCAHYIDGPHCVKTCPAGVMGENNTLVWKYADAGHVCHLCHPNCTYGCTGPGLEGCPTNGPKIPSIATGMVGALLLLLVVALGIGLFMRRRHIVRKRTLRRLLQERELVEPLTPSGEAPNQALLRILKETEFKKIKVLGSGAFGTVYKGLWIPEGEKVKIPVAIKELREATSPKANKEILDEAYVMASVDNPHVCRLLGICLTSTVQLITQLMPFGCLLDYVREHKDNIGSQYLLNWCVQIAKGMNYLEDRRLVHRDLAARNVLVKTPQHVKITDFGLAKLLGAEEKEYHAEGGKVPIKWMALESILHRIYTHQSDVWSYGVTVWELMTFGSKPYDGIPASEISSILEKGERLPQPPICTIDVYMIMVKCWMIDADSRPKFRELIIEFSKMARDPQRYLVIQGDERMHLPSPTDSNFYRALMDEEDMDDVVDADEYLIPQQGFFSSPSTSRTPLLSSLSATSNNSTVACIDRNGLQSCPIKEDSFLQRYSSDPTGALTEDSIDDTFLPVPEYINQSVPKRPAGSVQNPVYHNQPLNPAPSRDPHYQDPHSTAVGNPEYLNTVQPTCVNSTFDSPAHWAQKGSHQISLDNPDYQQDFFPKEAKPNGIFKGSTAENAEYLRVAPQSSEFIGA
Sequence of EGFR (D746-750/C797S) (P00533 with tags, fused parts or gaps DEL746-750/C797S): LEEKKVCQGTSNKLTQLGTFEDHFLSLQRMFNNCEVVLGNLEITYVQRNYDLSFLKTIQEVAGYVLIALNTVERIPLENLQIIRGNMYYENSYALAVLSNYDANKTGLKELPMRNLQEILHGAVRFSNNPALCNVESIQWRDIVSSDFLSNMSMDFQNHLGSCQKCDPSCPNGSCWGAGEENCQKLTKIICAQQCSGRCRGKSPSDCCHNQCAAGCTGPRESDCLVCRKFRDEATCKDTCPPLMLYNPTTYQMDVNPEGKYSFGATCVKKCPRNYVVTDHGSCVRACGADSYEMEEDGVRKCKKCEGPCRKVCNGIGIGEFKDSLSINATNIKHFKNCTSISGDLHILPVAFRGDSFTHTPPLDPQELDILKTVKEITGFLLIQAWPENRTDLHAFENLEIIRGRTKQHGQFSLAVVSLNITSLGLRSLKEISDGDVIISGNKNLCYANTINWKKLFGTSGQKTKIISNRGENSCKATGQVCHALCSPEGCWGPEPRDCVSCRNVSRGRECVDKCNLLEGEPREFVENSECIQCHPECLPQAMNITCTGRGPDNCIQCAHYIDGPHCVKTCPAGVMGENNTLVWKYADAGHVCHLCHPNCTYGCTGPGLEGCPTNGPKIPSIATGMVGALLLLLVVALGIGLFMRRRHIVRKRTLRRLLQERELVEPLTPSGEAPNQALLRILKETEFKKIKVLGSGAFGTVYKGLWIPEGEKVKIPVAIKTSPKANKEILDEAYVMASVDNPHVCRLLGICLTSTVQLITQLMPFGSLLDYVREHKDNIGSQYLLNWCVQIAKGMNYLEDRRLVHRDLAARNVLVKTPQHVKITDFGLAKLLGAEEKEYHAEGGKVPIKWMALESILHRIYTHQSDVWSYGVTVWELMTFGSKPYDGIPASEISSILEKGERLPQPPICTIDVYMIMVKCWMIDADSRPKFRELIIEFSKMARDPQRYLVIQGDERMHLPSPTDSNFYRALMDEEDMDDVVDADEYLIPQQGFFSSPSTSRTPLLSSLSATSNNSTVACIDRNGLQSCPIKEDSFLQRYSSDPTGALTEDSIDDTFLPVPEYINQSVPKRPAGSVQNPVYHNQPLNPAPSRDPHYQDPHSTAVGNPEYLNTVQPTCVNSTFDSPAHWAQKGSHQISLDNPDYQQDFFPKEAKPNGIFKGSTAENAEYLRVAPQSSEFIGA
Sequence of EGFR (L858R/T790M/C797S) (P00533 25-1210 T790M/C797S/L858R): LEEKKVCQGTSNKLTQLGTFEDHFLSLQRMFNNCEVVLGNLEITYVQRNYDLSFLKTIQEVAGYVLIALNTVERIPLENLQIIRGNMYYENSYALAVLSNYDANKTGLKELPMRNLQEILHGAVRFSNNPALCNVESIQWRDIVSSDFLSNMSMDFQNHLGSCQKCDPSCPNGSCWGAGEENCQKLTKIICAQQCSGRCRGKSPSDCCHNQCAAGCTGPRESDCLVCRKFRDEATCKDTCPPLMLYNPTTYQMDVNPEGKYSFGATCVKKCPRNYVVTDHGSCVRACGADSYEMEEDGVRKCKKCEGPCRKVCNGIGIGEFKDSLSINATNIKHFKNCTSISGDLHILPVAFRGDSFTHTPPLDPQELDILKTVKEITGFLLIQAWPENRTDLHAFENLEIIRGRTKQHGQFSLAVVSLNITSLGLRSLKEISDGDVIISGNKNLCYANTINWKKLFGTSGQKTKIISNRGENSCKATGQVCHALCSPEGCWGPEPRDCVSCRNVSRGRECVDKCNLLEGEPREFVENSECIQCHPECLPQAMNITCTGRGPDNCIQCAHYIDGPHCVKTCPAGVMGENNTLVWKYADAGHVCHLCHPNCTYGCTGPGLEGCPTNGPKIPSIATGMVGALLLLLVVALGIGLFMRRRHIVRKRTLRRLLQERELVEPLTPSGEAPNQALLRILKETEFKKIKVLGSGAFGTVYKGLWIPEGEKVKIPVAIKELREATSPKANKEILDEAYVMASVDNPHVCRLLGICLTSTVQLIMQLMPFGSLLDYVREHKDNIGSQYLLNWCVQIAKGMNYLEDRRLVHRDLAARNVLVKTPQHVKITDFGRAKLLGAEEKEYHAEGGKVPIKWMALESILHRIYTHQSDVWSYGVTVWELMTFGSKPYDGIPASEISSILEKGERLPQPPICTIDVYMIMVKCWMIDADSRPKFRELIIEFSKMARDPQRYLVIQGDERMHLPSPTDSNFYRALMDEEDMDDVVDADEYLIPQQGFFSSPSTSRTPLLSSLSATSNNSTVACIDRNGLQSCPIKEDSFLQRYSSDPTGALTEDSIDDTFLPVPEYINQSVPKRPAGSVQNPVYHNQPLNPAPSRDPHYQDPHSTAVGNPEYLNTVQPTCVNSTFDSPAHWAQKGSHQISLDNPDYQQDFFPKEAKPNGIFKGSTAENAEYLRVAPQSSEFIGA
T2 sequence (P00533 25-1210 T790M/L858R): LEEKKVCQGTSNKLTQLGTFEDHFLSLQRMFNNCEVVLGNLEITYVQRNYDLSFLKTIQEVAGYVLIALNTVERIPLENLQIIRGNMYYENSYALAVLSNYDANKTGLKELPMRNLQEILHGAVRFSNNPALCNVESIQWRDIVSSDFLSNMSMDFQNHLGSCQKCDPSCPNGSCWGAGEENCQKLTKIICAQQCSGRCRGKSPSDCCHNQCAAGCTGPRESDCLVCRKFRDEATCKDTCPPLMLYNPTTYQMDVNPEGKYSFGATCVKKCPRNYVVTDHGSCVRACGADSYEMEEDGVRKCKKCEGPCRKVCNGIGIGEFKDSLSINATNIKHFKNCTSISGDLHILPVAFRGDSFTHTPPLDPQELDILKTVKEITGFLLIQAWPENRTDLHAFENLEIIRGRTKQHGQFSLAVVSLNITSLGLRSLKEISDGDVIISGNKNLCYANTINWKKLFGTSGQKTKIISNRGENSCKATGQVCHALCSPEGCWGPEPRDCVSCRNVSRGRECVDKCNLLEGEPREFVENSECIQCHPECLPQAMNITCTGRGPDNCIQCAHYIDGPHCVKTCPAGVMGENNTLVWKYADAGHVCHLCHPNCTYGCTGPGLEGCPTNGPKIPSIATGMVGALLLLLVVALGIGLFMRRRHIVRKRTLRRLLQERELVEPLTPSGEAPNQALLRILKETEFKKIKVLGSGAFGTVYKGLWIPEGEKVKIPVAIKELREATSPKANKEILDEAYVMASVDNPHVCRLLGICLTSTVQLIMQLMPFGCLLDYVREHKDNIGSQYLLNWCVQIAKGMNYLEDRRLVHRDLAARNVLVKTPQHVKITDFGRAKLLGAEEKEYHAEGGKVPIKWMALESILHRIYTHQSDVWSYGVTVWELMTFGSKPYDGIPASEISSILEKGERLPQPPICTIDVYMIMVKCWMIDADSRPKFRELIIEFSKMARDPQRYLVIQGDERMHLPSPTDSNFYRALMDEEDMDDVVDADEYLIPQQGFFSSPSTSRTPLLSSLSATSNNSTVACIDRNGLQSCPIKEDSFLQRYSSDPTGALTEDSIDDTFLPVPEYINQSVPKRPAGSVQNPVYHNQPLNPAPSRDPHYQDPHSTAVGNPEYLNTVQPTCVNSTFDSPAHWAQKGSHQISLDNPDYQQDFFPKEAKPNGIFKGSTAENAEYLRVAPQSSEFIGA

Row | Compound | IC50 (EGFR (L858R/T790M/C797S)) | IC50 (EGFR (D746-750)) | IC50 (EGFR (D746-750/C797S)) | IC50 (EGFR (D770_N771insNPG)) | IC50 [1] | IC50 [2] | IC50 [3] | IC50 (PC-9 cells) | IC50 (NCI-H1975 cells) | IC50 (HCC827 cells) | IC50 [4] | IC50 [5] | IC50 [6]
1 | CCOc1nn(CCO)c2c1/C=C/c1n[nH]c3cnc(cc13)-c1c(CC)nn(C)c1O[C@@H](C)CN(CC)C2 [Ex. 74, 2-[(10S,17E)-16-ethoxy-6,12-diethyl-8,10-dimethyl-2,8,10,11,12,13-hexahydro-14H-5,3-(azenometheno)tripyrazolo[3,4-f:3′,4′-j:4″,3″-n][1,4]oxazacyclopentadecin-14-yl]ethan-1-ol] | 1.5 nM | 0.55 nM | 1.83 nM | 0.66 nM | 1.54 nM | 5.16 nM | 8.81 nM | 0.68 nM | 79.9 nM | 0.72 nM | 1.34 nM | 0.04 nM | 6.61 nM
2 | CCOc1nn(CCO)c2c1/C=C/c1n[nH]c3cnc(cc13)-c1c(C)nn(C)c1O[C@@H](C)[C@H]1CCCN1C2 [Ex. 32, 2-[(8aR,9S,19E)-1-ethoxy-9,11,13-trimethyl-7,8,8a,9,11,17-hexahydro-6H-14,16-(azenometheno)tripyrazolo[3,4-f:3′,4′-j:4″,3″-n]pyrrolo[2,1-c][1,4]oxazacyclopentadecin-3(4H)-yl]ethan-1-ol] | 0.77 nM | 0.33 nM | 1.09 nM | 0.63 nM | 1.08 nM | 1.48 nM | 9.53 nM | 0.54 nM | 1.39 nM | 0.25 nM | 0.87 nM | 0.07 nM | 0.48 nM
3 | CCOc1nn([C@@H](C)CO)c2c1/C=C/c1n[nH]c3cnc(cc13)-c1c(C)nn(C)c1O[C@H](C)CN(C)C2 [Ex. 35, (2S)-2-[(10R,17E)-16-ethoxy-6,8,10,12-tetramethyl-2,8,10,11,12,13-hexahydro-14H-5,3-(azenometheno)tripyrazolo[3,4-f:3′,4′-j:4″,3″-n][1,4]oxazacyclopentadecin-14-yl]propan-1-ol] | 0.41 nM | 0.22 nM | 0.66 nM | 0.24 nM | 1.56 nM | 1.25 nM | 15.1 nM | 2.56 nM | 3.05 nM | 0.51 nM | 0.89 nM | 0.14 nM | 0.46 nM
4 | CCOc1nn(CCO)c2c1/C=C/c1n[nH]c3cnc(cc13)-c1c(C)nn(C)c1O[C@@H](C)CN(C)C2 [Ex. 44, 2-[(10S,17E)-16-ethoxy-6,8,10,12-tetramethyl-2,8,10,11,12,13-hexahydro-14H-5,3-(azenometheno)tripyrazolo[3,4-f:3′,4′-j:4″,3″-n][1,4]oxazacyclopentadecin-14-yl]ethan-1-ol] | 0.57 nM | 0.26 nM | 0.62 nM | 0.17 nM | 1.01 nM | 1.92 nM | 9.94 nM | 0.84 nM | 1.05 nM | 0.29 nM | 0.57 nM | 0.05 nM | 1.18 nM
5 | CCOc1nn([C@@H](C)CO)c2c1/C=C/c1n[nH]c3c(C)nc(cc13)-c1cnn(C)c1O[C@@H](C)CN(C)C2 [Ex. 45, (2S)-2-[(10S,17E)-16-ethoxy-8,10,12,20-tetramethyl-2,8,10,11,12,13-hexahydro-14H-5,3-(azenometheno)tripyrazolo[3,4-f:3′,4′-j:4″,3″-n][1,4]oxazacyclopentadecin-14-yl]propan-1-ol] | 0.53 nM | 0.28 nM | 0.95 nM | 0.69 nM | 2.15 nM | 1.24 nM | 12.2 nM | 3.31 nM | 1.09 nM | 1.12 nM | 0.47 nM | 0.12 nM | 1.04 nM
6 | CCOc1nn([C@@H](C)CO)c2c1/C=C/c1n[nH]c3cnc(cc13)-c1c(C)nn(C)c1OCCN(C)C2 [Ex. 59, (2S)-2-[(17E)-16-ethoxy-6,8,12-trimethyl-2,8,10,11,12,13-hexahydro-14H-5,3-(azenometheno)tripyrazolo[3,4-f:3′,4′-j:4″,3″-n][1,4]oxazacyclopentadecin-14-yl]propan-1-ol] | 0.99 nM | 0.37 nM | 1.33 nM | 1.13 nM | 1.96 nM | 1.43 nM | 5.29 nM | 3.21 nM | 15.7 nM | 0.94 nM | 0.91 nM | 0.18 nM | 3.62 nM
7 | CCOc1nn(CCO)c2c1/C=C/c1n[nH]c3cnc(cc13)-c1c(C)nn(C)c1OC[C@H]1CCCN1C2 [Ex. 39] | 0.5 nM | 0.32 nM | 0.85 nM | 0.48 nM | 2.11 nM | 2.18 nM | 22.7 nM | 6.57 nM | 26.4 nM | 0.63 nM | 1.87 nM | 0.27 nM | 6.08 nM

These reach a lower IC50 (EGFR (L858R/T790M/C797S)). Values come first.

Row | IC50 (EGFR (L858R/T790M/C797S)) | IC50 (EGFR (D746-750)) | IC50 (EGFR (D746-750/C797S)) | IC50 (EGFR (D770_N771insNPG)) | IC50 [1] | IC50 [2] | IC50 [3] | IC50 (PC-9 cells) | IC50 (NCI-H1975 cells) | IC50 (HCC827 cells) | IC50 [4] | IC50 [5] | IC50 [6] | Compound
8 | 0.39 nM | 0.19 nM | 0.68 nM | 0.21 nM | 1.07 nM | 3.43 nM | 19.3 nM | 0.51 nM | 5.55 nM | 0.41 nM | 1.14 nM | 0.12 nM | 2.99 nM | Cc1nn(C)c2c1-c1cc3c(n[nH]c3cn1)/C=C/c1c(OCC#N)nn(CCO)c1CN1CCC[C@@H]1C(C)O2 (single isomer, unassigned) [Ex. 50]
9 | 0.37 nM | 0.18 nM | 0.63 nM | 0.23 nM | 3.14 nM | 6.12 nM | 37 nM | 17.8 nM | 55.6 nM | 2.08 nM | 1.21 nM | 0.16 nM | 17.1 nM | Cc1nn(C)c2c1-c1cc3c(n[nH]c3cn1)/C=C/c1c(C#N)nn([C@@H](C)CO)c1CN(C)C[C@H](C)O2 [Ex. 48, (10S,17E)-14-[(2S)-1-hydroxypropan-2-yl]-6,8,10,12-tetramethyl-2,10,11,12,13,14-hexahydro-8H-5,3-(azenometheno)tripyrazolo[3,4-f:3′,4′-j:4″,3″-n∥1,4]oxazacyclopentadecine-16-carbonitrile]
10 | 0.31 nM | 0.15 nM | 0.66 nM | 0.17 nM | 1.5 nM | 2.38 nM | 17.6 nM | 0.58 nM | 1.1 nM | 0.44 nM | 1.6 nM | 0.11 nM | 1.07 nM | CCOc1nn(CCO)c2c1/C=C/c1n[nH]c3cnc(cc13)-c1c(C)nn(C)c1O[C@H](C)[C@H]1CCCN1C2 [Ex. 33, 2-[(8aR,9R,19E)-1-ethoxy-9,11,13-trimethyl-7,8,8a,9,11,17-hexahydro-6H-14,16-(azenometheno)tripyrazolo[3,4-f:3′,4′-j:4″,3″-n]pyrrolo[2,1-c][1,4]oxazacyclopentadecin-3(4H)-yl]ethan-1-ol]
